Structures are written as SMILES. The source made the active and inactive calls. No cut-off for these calls is given here.

The record followed here is ChEMBL document CHEMBL4330060, “Design and development of some phenyl benzoxazole derivatives as a potent acetylcholinesterase inhibitor with antioxidant property to enhance learning and memory” (Eur J Med Chem, 2019).

Data set [1] deals with T1, Acetylcholinesterase (Electrophorus electricus, UniProt O42275). Kind of data set: Inhibition of Electric eel AChE using acetylthiocholine iodide as substrate after 10 mins measured for every mins by Ellman's method. On the technique in general: Ellman's reagent forms a yellow product with free thiols.
Data set [2] in a line: Antioxidant activity assessed as DPPH radical scavenging activity at 10 uM after 30 mins under dark condition relative to control. The class given is functional. Background: The DPPH test is a chemical assay of radical scavenging.
Data set [3] is described as follows: Neurotoxicity in Swiss albino mouse assessed as motor coordination by measuring fall off time at 5 mg/kg, po after 1 hr by rota rod test (reference value: 310.61 +/- 26.64 sec). It is filed as toxicity, organism-based. Conditions: in vivo. (The rotarod test checks motor coordination on a turning rod.)
Data set [4] has as its system Mus musculus. Kind of data set: Cognitive enhancing effect in Swiss albino mouse assessed as reversal of scopolamine-induced reduction in spontaneous alteration score at 1 mg/kg, ip qd pretreated for 1 hr followed by scopolamine addition by Y-maze test. The class given is functional, organism-based.
Data set [5] has as its system Mus musculus. Kind of data set: Memory enhancing effect in Swiss albino mouse assessed as reversal of scopolamine-induced reduction in latency time at 1 mg/kg, ip qd pretreated for 1 hr followed by scopolamine addition by passive avoidance test. The class given is functional, organism-based.
Data set [6] deals with Cholinesterase (Homo sapiens, UniProt P06276). The experiment in a line: Inhibition of human serum BChE using butyrylthiocholine iodide as substrate after 10 mins measured for every mins by Ellman's method.
Data set [7] is described as follows: Selectivity index, ratio of IC50 for human serum BChE to IC50 for Electric eel AChE.
Data set [8] deals with Mus musculus. Kind of data set: Cognitive enhancing effect in Swiss albino mouse assessed as reversal of scopolamine-induced anxiety by measuring increase in number of novel arm entries at 1 to 20 mg/kg, ip qd pretreated for 1 hr followed by scopolamine addition by Y-maze test. The class given is functional, organism-based.
Data set [9] deals with Mus musculus. The experiment in a line: In vivo antioxidant activity in Swiss albino mouse brain assessed as increase in SOD level at 5 mg/kg, ip qd pretreated for 1 hr followed by scopolamine addition measured every 30 secs interval for 2 mins. It is filed as functional, organism-based.
For data set [10], the system named is Mus musculus. Kind of data set: In vivo antioxidant activity in Swiss albino mouse brain assessed as decrease in nitric oxide level at 5 mg/kg, ip qd pretreated for 1 hr followed by scopolamine addition by Griess reagent based assay. It is filed as functional, organism-based.
Data set [11] concerns Mus musculus. Kind of data set: In vivo antioxidant activity in Swiss albino mouse brain assessed as decrease in MDA level at 5 mg/kg, ip qd pretreated for 1 hr followed by scopolamine addition by TBARS assay. It is filed as functional, organism-based.
The nature of data set [12]: Acute toxicity in Swiss albino mouse assessed as abnormal behavior at 100 mg/kg, po measured at 14 days post administration. The class given is organism-based. The settings on record: in vivo, 336 h.
For data set [13], the system named is Mus musculus. The experiment in a line: In vivo antioxidant activity in Swiss albino mouse brain assessed as increase in catalase activity by measuring decrease in H2O2 level at 5 mg/kg, ip qd pretreated for 1 hr followed by scopolamine addition. The class given is functional, organism-based.
The target in data set [14] is T1, Acetylcholinesterase. The experiment in a line: Inhibition of Electric eel AChE using acetylthiocholine iodide as substrate after 10 mins measured for every mins by Lineweaver-Burk plot analysis.
The nature of data set [15]: in vitro. Conditions: PAMPA, pH 7.4.
Description: Effective permeability of the compound at pH 7.4 after 18 hrs by PAMPA-BBB assay
Data set [16] has as its target Acetylcholinesterase (Homo sapiens) (UniProt P22303). The experiment in a line: Displacement of Propidium iodide from PAS region of AChE (unknown origin) after 20 hrs by fluorescence assay relative to control. The settings on record: concentration not given here.
A short description of data set [17]: Acute toxicity in Swiss albino mouse up to 100 mg/kg, po measured until 14 days. The class given is organism-based. Conditions: in vivo, 336 h.
Data set [18] deals with Mus musculus. Kind of data set: Ex vivo inhibition of AChE in Swiss albino mouse brain at 5 mg/kg, ip qd pretreated for 1 hr followed by scopolamine addition using acetylthiocholine iodide as substrate by Ellman's method. The class given is functional, organism-based.
In data set [19] the test system is Mus musculus. The experiment in a line: In vivo antioxidant activity in Swiss albino mouse brain assessed as increase in GSH level at 5 mg/kg, ip qd pretreated for 1 hr followed by scopolamine addition. The class given is functional, organism-based.
Data set [20] concerns Mus musculus. Kind of data set: Cognitive enhancing effect in Swiss albino mouse assessed as reversal of scopolamine-induced cainophobia behavior by measuring increase in number of novel arm entries at 1 to 20 mg/kg, ip qd pretreated for 1 hr followed by scopolamine addition by Y-maze test. The class given is functional, organism-based.
Data set [21] can be described thus: Acute toxicity in Swiss albino mouse assessed as mortality at 100 mg/kg, po measured at 14 days post administration. The class given is organism-based. Conditions: in vivo, 336 h.
The test system of data set [22] is Mus musculus. The experiment in a line: Cognitive enhancing effect in Swiss albino mouse assessed as reversal of scopolamine-induced reduction in spontaneous alteration score at 5 mg/kg, ip qd pretreated for 1 hr followed by scopolamine addition by Y-maze test. The class given is functional, organism-based.
Data set [23] deals with Mus musculus. Kind of data set: Memory enhancing effect in Swiss albino mouse assessed as reversal of scopolamine-induced reduction in latency time at 5 mg/kg, ip qd pretreated for 1 hr followed by scopolamine addition by passive avoidance test. The class given is functional, organism-based.
Data set [24] is described as follows: Effective permeability of the compound by PAMPA. The class given is ADME. Conditions: read-out: Peff.

Cholinesterase, sequence (P06276 whole entry): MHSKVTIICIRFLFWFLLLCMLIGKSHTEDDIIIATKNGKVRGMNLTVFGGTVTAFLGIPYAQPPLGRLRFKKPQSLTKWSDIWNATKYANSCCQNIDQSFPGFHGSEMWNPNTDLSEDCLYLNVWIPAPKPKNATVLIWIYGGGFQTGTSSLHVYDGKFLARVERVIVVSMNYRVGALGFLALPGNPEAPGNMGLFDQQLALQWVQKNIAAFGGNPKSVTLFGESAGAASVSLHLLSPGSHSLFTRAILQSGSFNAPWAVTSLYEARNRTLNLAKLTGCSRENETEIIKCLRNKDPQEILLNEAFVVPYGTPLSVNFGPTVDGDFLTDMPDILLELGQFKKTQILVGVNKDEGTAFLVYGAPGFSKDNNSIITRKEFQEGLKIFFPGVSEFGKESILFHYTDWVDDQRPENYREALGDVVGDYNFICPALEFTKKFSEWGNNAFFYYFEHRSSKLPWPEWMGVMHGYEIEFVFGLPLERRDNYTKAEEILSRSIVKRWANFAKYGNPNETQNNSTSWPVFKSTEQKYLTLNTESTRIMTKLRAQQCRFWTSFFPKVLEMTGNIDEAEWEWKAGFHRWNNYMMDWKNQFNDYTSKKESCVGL
T1 sequence (O42275 whole entry): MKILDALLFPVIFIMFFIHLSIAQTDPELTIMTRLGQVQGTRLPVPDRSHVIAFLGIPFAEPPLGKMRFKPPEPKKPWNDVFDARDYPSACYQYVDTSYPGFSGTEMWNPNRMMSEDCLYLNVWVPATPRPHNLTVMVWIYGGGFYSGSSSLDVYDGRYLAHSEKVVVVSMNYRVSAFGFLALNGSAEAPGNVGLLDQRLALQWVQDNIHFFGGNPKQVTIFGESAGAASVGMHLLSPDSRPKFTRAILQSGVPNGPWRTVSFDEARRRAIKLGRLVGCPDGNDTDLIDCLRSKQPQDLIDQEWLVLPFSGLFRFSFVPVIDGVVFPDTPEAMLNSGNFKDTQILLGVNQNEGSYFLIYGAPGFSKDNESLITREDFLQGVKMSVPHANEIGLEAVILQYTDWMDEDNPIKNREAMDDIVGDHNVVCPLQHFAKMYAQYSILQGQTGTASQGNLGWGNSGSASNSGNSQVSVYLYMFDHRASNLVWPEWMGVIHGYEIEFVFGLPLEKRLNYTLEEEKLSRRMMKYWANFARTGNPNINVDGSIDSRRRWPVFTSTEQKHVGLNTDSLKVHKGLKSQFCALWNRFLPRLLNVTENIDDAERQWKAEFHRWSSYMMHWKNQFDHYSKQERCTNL
Acetylcholinesterase (Homo sapiens), sequence (P22303 whole entry): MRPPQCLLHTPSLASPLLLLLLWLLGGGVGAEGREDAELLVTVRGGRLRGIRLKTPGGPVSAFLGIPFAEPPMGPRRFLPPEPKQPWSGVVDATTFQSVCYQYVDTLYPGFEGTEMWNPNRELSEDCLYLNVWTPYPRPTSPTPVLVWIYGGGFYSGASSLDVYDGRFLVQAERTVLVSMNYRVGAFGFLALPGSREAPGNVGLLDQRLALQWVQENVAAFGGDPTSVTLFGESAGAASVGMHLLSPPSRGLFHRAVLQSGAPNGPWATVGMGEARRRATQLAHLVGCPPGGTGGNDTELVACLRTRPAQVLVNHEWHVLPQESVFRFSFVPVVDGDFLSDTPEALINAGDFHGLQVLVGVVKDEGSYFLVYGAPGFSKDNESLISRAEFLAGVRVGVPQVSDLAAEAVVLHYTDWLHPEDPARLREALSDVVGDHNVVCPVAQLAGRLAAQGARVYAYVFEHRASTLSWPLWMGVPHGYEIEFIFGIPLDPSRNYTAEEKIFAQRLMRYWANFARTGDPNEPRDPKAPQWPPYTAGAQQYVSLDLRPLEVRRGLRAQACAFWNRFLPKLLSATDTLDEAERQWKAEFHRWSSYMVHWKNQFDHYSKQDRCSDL

In general, IC50 refers to the midpoint of a concentration-inhibition curve. Read a low IC50 as inhibition by little substance. Consider `O=c1ccc2ccc(OCCCCCSc3nc4ccccc4o3)cc2o1`, for which the IC50 in data set [1] was 25.4 µM.
For the compound `COc1cc2c(cc1OC)C(=O)C(CC1CCN(Cc3ccccc3)CC1)C2` (stereo unspecified) [DONEPEZIL], in data set [2], the Activity is less than 10%. In addition, in data set [3], the Time stood at 167.75 s. The result in [4] and in data set [5] was Active.
Consider `S=C(Nc1ccccc1)Nc1ccc(-c2nc3ccccc3o2)cc1`, for which the Activity in [2] amounted to 45.3%. Moreover, the IC50 in data set [1] and in data set [6] was greater than 50 µM throughout.
For `Brc1ccc(CNc2ccc(-c3nc4ccccc4o3)cc2)cc1`, the Activity in data set [2] turned out to be 18.5%. Moreover, the IC50 in data set [1] is 8.44 µM; in data set [6] it was greater than 50 µM.
For `OC(CNc1ccc(Br)cc1)CNc1ccc(-c2nc3ccccc3o2)cc1` (stereo unspecified), in data set [2], the Activity stood at 42.4%. The IC50 is 1.31 µM in data set [1] and greater than 50 µM in [6].
Taken in the same sequence, the figures for `O=[N+]([O-])c1ccc(NCC(O)CNc2ccc(-c3nc4ccccc4o3)cc2)cc1` (stereo unspecified) were 44.4%, 1.15 µM and greater than 50 µM.
Taken in the same sequence, the figures for `Clc1ccc(/C=N/c2ccc(-c3nc4ccccc4o3)cc2)cc1` were less than 10%, 2.27 µM and greater than 50 µM.
As for `S=C(Nc1ccc(Cl)cc1)Nc1ccc(-c2nc3ccccc3o2)cc1`, in data set [2], the Activity was 40%. Besides, the IC50 is 12.6 µM in data set [1] and greater than 50 µM in data set [6].
Taken in the same sequence, the figures for `CC(C)c1ccc(NC(=S)Nc2ccc(-c3nc4ccccc4o3)cc2)cc1` were 42.3%, greater than 50 µM and greater than 50 µM.
Regarding `O=c1cc(-c2ccccc2)c2ccc(NCCCSc3nc4ccccc4o3)cc2o1`, the IC50 in data set [1] was 13 µM.
Regarding `Oc1ccc(CNc2ccc(-c3nc4ccccc4o3)cc2)cc1`, in data set [2], the Activity worked out at 39.4%. The IC50 stood at 0.723 µM in data set [1] and 4.71 µM in [6]. Also, the Ratio IC50 in [7] worked out at 6.5.
For the compound `S=C(Nc1ccc(Br)cc1)Nc1ccc(-c2nc3ccccc3o2)cc1`, the Activity in [2] was 43.1%. For the same compound, the IC50 in [1] was 8.72 µM; in data set [6], greater than 50 µM.
Taken in the same sequence, the figures for `CC(C)c1ccc(CNc2ccc(-c3nc4ccccc4o3)cc2)cc1` were 27.5%, greater than 50 µM and greater than 50 µM.
As to `Oc1ccc(NCC(O)CNc2ccc(-c3nc4ccccc4o3)cc2)cc1` (stereo unspecified), in data set [2], the Activity was found to be 50%. In addition, the IC50 in data set [1] came out at 0.807 µM; in [6], 2.74 µM. Also, in [7], the Ratio IC50 is 3.4.
For orientation: Ki means the dissociation constant of the complex between target and ligand, obtained from inhibition or displacement. By inhibition is commonly meant the change of the read-out against control, counted positive when it falls. Regarding `OC(CNc1ccc(Cl)cc1)CNc1ccc(-c2nc3ccccc3o2)cc1` (stereo unspecified), the Activity in data set [2] was 49.6%; in data set [12] it was “Non-Toxic”; in data set [17], “Non-Toxic”; in data set [21], “Non-Toxic”. Besides, the result in [8], in [9], in [10], in [11], in data set [13] and in [19] was Active. For the same compound, the outcome in [20] and in [22] was Active. The Time in data set [3] is recorded as 298.75 s. In addition, the IC50 in data set [1] was 0.363 µM; in data set [6] it was 2.29 µM. Besides, the result in data set [4] was inactive. For the same compound, affinity in [14] was put at a Ki of 0.19 µM. The same compound gave a Papp at 18 h in data set [15] of 45.5 nm/s. Besides, the Ratio IC50 in [7] is 6.3. The compound further yielded an inhibition in data set [16] of 11.2%. For the same compound, in [18], the inhibition result was “Active”.
On to `CN(C)C(=O)Oc1ccccc1-c1nc2ccccc2o1`, for which the IC50 in data set [1] was 58.2 µM. This counts as double-digit micromolar.
With `Clc1ccc(CNc2ccc(-c3nc4ccccc4o3)cc2)cc1`, the Activity in data set [2] stood at 25.1%. Further, the values for the IC50 in data set [1] and in [6] were 6.3 µM and greater than 50 µM, respectively.
As for `Oc1ccc(/C=N/c2ccc(-c3nc4ccccc4o3)cc2)cc1`, the Activity in data set [2] stood at 31.8%. Also, the IC50 in [1] turned out to be 0.94 µM; in [6], 27 µM. Further, in [7], the Ratio IC50 is 28.7.
Take `CC(C)c1ccc(NCC(O)CNc2ccc(-c3nc4ccccc4o3)cc2)cc1` (stereo unspecified): the Activity in [2] is 39.1%. Besides, the outcome in data set [23] was Active. Besides, the IC50 is 8.02 µM in data set [1] and greater than 50 µM in [6].
Turning to `OC(CNc1ccccc1)CNc1ccc(-c2nc3ccccc3o2)cc1` (stereo unspecified), the Activity in data set [2] was 48.2%. Besides, the IC50 came out at 0.842 µM in [1] and 3.54 µM in data set [6]. For the same compound, the Ratio IC50 in data set [7] amounted to 4.2.
On to `Brc1ccc(/C=N/c2ccc(-c3nc4ccccc4o3)cc2)cc1`, for which the Activity in data set [2] was less than 10%. Also, the results for the IC50 in [1] and in data set [6] were 37.3 µM and greater than 50 µM, respectively.
Turning to `O=[N+]([O-])c1ccc(NC(=S)Nc2ccc(-c3nc4ccccc4o3)cc2)cc1`, the Activity in data set [2] is 45.9%. In addition, the IC50 in data set [1] is 9.43 µM; in [6] it was greater than 50 µM.
Taken in the same sequence, the figures for `O=[N+]([O-])c1ccc(CNc2ccc(-c3nc4ccccc4o3)cc2)cc1` were 22.7%, 24.2 µM and greater than 50 µM.
On to `O=C1O[C@H]([C@@H](O)CO)C(O)=C1O`, for which, in [2], the Activity stood at 56.6%.
As to `O=[N+]([O-])c1ccc(/C=N/c2ccc(-c3nc4ccccc4o3)cc2)cc1`, the Activity in data set [2] is less than 10%. Moreover, the IC50 in data set [1] was 1.79 µM; in data set [6], greater than 50 µM.
For `CC(C)c1ccc(/C=N/c2ccc(-c3nc4ccccc4o3)cc2)cc1` the same measures were less than 10%, greater than 50 µM and greater than 50 µM.
Regarding `C(=N\c1ccc(-c2nc3ccccc3o2)cc1)/c1ccccc1`, the Activity in [2] was less than 10%. Further, the IC50 in data set [1] and in [6] was greater than 50 µM each time.
For the compound `c1ccc(CNc2ccc(-c3nc4ccccc4o3)cc2)cc1`, the Activity in [2] was determined as 24.1%. For the same compound, the IC50 in data set [1] is 7.21 µM; in data set [6] it was greater than 50 µM.
Turning to `Oc1ccc(NC(=S)Nc2ccc(-c3nc4ccccc4o3)cc2)cc1`, in [2], the Activity is 50.2%. In addition, the IC50 is 0.882 µM in [1] and 27.4 µM in data set [6]. Further, the Ratio IC50 in data set [7] turned out to be 31.
As for `Cc1nnc2n1-c1ccc(Cl)cc1C(c1ccccc1)=NC2` [ALPRAZOLAM], in data set [24], the Papp turned out to be 54 nm/s. Further, the Papp at 18 h in data set [15] came to 42 nm/s.
